In patent US20250382332A1, “NOVEL ALPHA-FACTOR BASED PEPTIDES WITH ANTIFUNGAL ACTIVITY” (INVAIO SCIENCES, INC., priority 2024, published 2025):
Peptide text beside a SMILES is read from it.

Test system: Botrytis cinerea (B05.10)
Test: Resazurin antifungal assay of 180 alpha-factor peptide variants towards Botrytis (Example 2)
Type: cell-based
Set-up: key to active against Botrytis at 15 μM / active against Botrytis at 10 μM: Peptides that showed greater than 90% inhibition were considered active against Botrytis
Conditions: for Inhibition at 10 μM / Inhibition at 15 μM / Inhibition at 20 μM / Inhibition at 50 μM / Inhibition at 100 μM: % inhibition of fungal growth, Botrytis conidia, resazurin; for Inhibition at 10 μM: peptide 10 μM; for Inhibition at 15 μM / active against Botrytis at 15 μM: peptide 15 μM; for Inhibition at 20 μM: peptide 20 μM; for Inhibition at 50 μM: peptide 50 μM; for Inhibition at 100 μM: peptide 100 μM
Outline: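 Resazurin viability read-out (570/620 nm fluorescence) after a 24 h, 20° C incubation of B05.10 conidia, 5000 per well, with peptide at final 10-100 μM. Growth inhibition (%) was derived by subtracting conidia-only fluorescence; four replicates per treatment.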

Row | Structure (SMILES) | Inhibition at 10 μM | Inhibition at 15 μM | Inhibition at 20 μM | Inhibition at 50 μM | Inhibition at 100 μM | active against Botrytis at 15 μM
1 | CC[C@H](C)[C@H](NC(=O)[C@H](CCCCN)NC(=O)[C@@H](NC(=O)[C@H](CCCCN)NC(=O)[C@H](CC(C)C)NC(=O)[C@H](Cc1c[nH]c2ccccc12)NC(=O)[C@H](Cc1c[nH]cn1)NC(=O)[C@@H](N)CCCCN)[C@@H](C)CC)C(=O)NCC(=O)N[C@@H](CCC(=O)O)C(=O)N1CCC[C@H]1C(=O)N[C@@H](CCSC)C(=O)N[C@@H](Cc1ccc(O)cc1)C(=O)O [compound 62] (H-KHWLKIKIGEPMY-OH; N-terminus and C-terminus assumed) | <90% | 98.89% | 100% | 100% | 100% | active
2 | CC[C@H](C)[C@H](NC(=O)[C@H](CCCNC(=N)N)NC(=O)[C@H](CC(C)C)NC(=O)[C@H](Cc1c[nH]c2ccccc12)NC(=O)[C@H](Cc1c[nH]cn1)NC(=O)[C@@H](N)CCCCN)C(=O)N[C@@H](CCCCN)C(=O)N[C@@H](Cc1c[nH]c2ccccc12)C(=O)NCC(=O)N[C@@H](CCC(=O)O)C(=O)N1CCC[C@H]1C(=O)N[C@@H](CCSC)C(=O)N[C@@H](Cc1ccc(O)cc1)C(=O)O [compound 52] (H-KHWLRIKWGEPMY-OH; N-terminus and C-terminus assumed) | <90% | 97.66% | 100% | 100% | 100% | active
3 | CSCC[C@H](NC(=O)[C@@H]1CCCN1C(=O)[C@H](CCC(N)=O)NC(=O)CNC(=O)[C@@H]1CCCN1C(=O)[C@H](Cc1ccccc1)NC(=O)[C@H](CC(C)C)NC(=O)[C@H](CCCCN)NC(=O)[C@H](CC(C)C)NC(=O)[C@H](Cc1c[nH]c2ccccc12)NC(=O)[C@H](Cc1c[nH]cn1)NC(=O)[C@@H](N)CCCCN)C(=O)N[C@@H](Cc1ccc(O)cc1)C(=O)O [compound 61] (H-KHWLKLFPGQPMY-OH; N-terminus and C-terminus assumed) | <90% | <90% | 98.64% | 100% | 100% | 
4 | CSCC[C@H](NC(=O)[C@@H]1CCCN1C(=O)[C@H](CCC(N)=O)NC(=O)CNC(=O)[C@@H]1CCCN1C(=O)[C@H](CCCCN)NC(=O)[C@H](CC(C)C)NC(=O)[C@H](C)NC(=O)[C@H](CC(C)C)NC(=O)CNC(=O)CNC(=O)[C@@H](N)Cc1c[nH]c2ccccc12)C(=O)N[C@@H](Cc1ccc(O)cc1)C(=O)O [compound 48] (H-WGGLALKPGQPMY-OH; N-terminus and C-terminus assumed) |  |  |  | <90% | <90% | 
5 | CC[C@H](C)[C@H](NC(=O)[C@H](Cc1c[nH]c2ccccc12)NC(=O)[C@H](Cc1c[nH]cn1)NC(=O)[C@@H](N)CCCCN)C(=O)N[C@@H](CCCNC(=N)N)C(=O)N[C@@H](CC(C)C)C(=O)N[C@@H](Cc1c[nH]c2ccccc12)C(=O)N1CCC[C@H]1C(=O)NCC(=O)N[C@@H](CCC(N)=O)C(=O)N1CCC[C@H]1C(=O)N[C@@H](CCSC)C(=O)N[C@@H](Cc1ccc(O)cc1)C(=O)O [compound 75] (H-KHWIRLWPGQPMY-OH; N-terminus and C-terminus assumed) | <90% | <90% | 92.02% | 100% | 100% | 
6 | CSCC[C@H](NC(=O)[C@@H]1CCCN1C(=O)[C@H](CCC(N)=O)NC(=O)CNC(=O)[C@@H]1CCCN1C(=O)[C@H](CCCCN)NC(=O)[C@H](CC(C)C)NC(=O)[C@H](CCCNC(=N)N)NC(=O)[C@H](CC(C)C)NC(=O)[C@H](Cc1ccccc1)NC(=O)[C@H](Cc1c[nH]cn1)NC(=O)[C@@H]1CCCN1)C(=O)N[C@@H](Cc1ccc(O)cc1)C(=O)O [compound 112] (H-PHFLRLKPGQPMY-OH; N-terminus and C-terminus assumed) |  |  |  | <90% | 99.57% | 
7 | CSCC[C@H](NC(=O)CNC(=O)[C@H](CCC(N)=O)NC(=O)CNC(=O)[C@@H](NC(=O)[C@H](CCCCN)NC(=O)[C@H](Cc1ccccc1)NC(=O)[C@@H](NC(=O)[C@H](CC(C)C)NC(=O)[C@H](Cc1c[nH]c2ccccc12)NC(=O)[C@H](Cc1c[nH]cn1)NC(=O)[C@@H](N)Cc1c[nH]c2ccccc12)[C@@H](C)O)[C@@H](C)O)C(=O)N[C@@H](Cc1ccc(O)cc1)C(=O)O [compound 16] (H-WHWLTFKTGQGMY-OH; N-terminus and C-terminus assumed) | <90% |  | <90% | 100% | 100% | 
8 | CC[C@H](C)[C@H](NC(=O)[C@H](CCC(N)=O)NC(=O)[C@H](CC(C)C)NC(=O)CNC(=O)[C@H](CO)NC(=O)[C@@H]1CCCN1)C(=O)N[C@@H](CCCCN)C(=O)N[C@H](C(=O)NCC(=O)N[C@@H](CCC(N)=O)C(=O)N1CCC[C@H]1C(=O)N[C@@H](CCSC)C(=O)N[C@@H](Cc1ccc(O)cc1)C(=O)O)C(C)C [compound 121] (H-PSGLQIKVGQPMY-OH; N-terminus and C-terminus assumed) |  |  |  | <90% | <90% | 
9 | CC[C@H](C)[C@H](NC(=O)[C@H](Cc1c[nH]c2ccccc12)NC(=O)[C@H](Cc1c[nH]cn1)NC(=O)[C@@H](N)CCCCN)C(=O)N[C@@H](CCCCN)C(=O)N[C@@H](CC(C)C)C(=O)N[C@@H](CCSC)C(=O)N1CCC[C@H]1C(=O)NCC(=O)N[C@@H](CCC(N)=O)C(=O)NCC(=O)N[C@@H](CCSC)C(=O)N[C@@H](Cc1ccc(O)cc1)C(=O)O [compound 8] (H-KHWIKLMPGQGMY-OH; N-terminus and C-terminus assumed) | <90% |  | <90% | 100% | 100% | 
10 | CSCC[C@H](NC(=O)[C@@H]1CCCN1C(=O)[C@H](CCC(N)=O)NC(=O)CNC(=O)[C@@H]1CCCN1C(=O)[C@H](CCCCN)NC(=O)[C@H](CC(C)C)NC(=O)[C@H](C)NC(=O)[C@H](CC(C)C)NC(=O)[C@H](Cc1ccccc1)NC(=O)[C@H](Cc1c[nH]cn1)NC(=O)[C@@H](N)CCCCN)C(=O)N[C@@H](Cc1ccc(O)cc1)C(=O)O [compound 28] (H-KHFLALKPGQPMY-OH; N-terminus and C-terminus assumed) |  |  |  | <90% | 100% | 
11 | CSCC[C@H](NC(=O)[C@@H]1CCCN1C(=O)[C@H](CCC(N)=O)NC(=O)CNC(=O)[C@H](CCCNC(=N)N)NC(=O)[C@H](CCC(N)=O)NC(=O)[C@H](Cc1ccccc1)NC(=O)[C@H](CCC(=O)O)NC(=O)[C@H](CC(C)C)NC(=O)[C@H](Cc1c[nH]c2ccccc12)NC(=O)[C@H](Cc1c[nH]cn1)NC(=O)[C@@H](N)Cc1c[nH]c2ccccc12)C(=O)N[C@@H](Cc1ccc(O)cc1)C(=O)O [compound 167] (H-WHWLEFQRGQPMY-OH; N-terminus and C-terminus assumed) |  |  |  | <90% | <90% | 
12 | CSCC[C@H](NC(=O)[C@@H]1CCCN1C(=O)[C@H](CCC(N)=O)NC(=O)CNC(=O)[C@@H](NC(=O)[C@H](CCCCN)NC(=O)[C@H](CC(C)C)NC(=O)[C@H](CCCNC(=N)N)NC(=O)[C@@H](NC(=O)[C@H](Cc1c[nH]c2ccccc12)NC(=O)[C@H](CCCCN)NC(=O)[C@@H](N)Cc1c[nH]c2ccccc12)C(C)C)[C@@H](C)O)C(=O)N[C@@H](Cc1ccc(O)cc1)C(=O)O [compound 53] (H-WKWVRLKTGQPMY-OH; N-terminus and C-terminus assumed) | <90% | <90% | 100% | 100% | 100% | 
13 | CSCC[C@H](NC(=O)[C@@H]1CCCN1C(=O)[C@H](CCC(N)=O)NC(=O)CNC(=O)[C@@H]1CCCN1C(=O)[C@H](CCCCN)NC(=O)[C@H](CC(C)C)NC(=O)[C@H](CCCNC(=N)N)NC(=O)[C@H](CC(C)C)NC(=O)[C@H](CC(C)C)NC(=O)[C@H](Cc1c[nH]cn1)NC(=O)[C@@H](N)CCCCN)C(=O)N[C@@H](Cc1ccc(O)cc1)C(=O)O [compound 88] (H-KHLLRLKPGQPMY-OH; N-terminus and C-terminus assumed) | <90% |  | <90% | 99.75% | 100% | 
14 | CSCC[C@H](NC(=O)[C@@H]1CCCN1C(=O)[C@H](CCC(N)=O)NC(=O)CNC(=O)[C@H](CCCNC(=N)N)NC(=O)[C@H](CCCCN)NC(=O)[C@H](CC(C)C)NC(=O)[C@H](CCC(N)=O)NC(=O)[C@H](CC(C)C)NC(=O)[C@@H](NC(=O)[C@H](Cc1c[nH]cn1)NC(=O)[C@@H](N)CCCCN)[C@@H](C)O)C(=O)N[C@@H](Cc1ccc(O)cc1)C(=O)O [compound 93] (H-KHTLQLKRGQPMY-OH; N-terminus and C-terminus assumed) | <90% |  | <90% | 97.77% | 100% | 
15 | CSCC[C@H](NC(=O)[C@@H]1CCCN1C(=O)[C@H](CO)NC(=O)CNC(=O)[C@@H]1CCCN1C(=O)[C@H](CCCCN)NC(=O)[C@H](CC(C)C)NC(=O)[C@H](C)NC(=O)[C@H](CC(C)C)NC(=O)[C@@H](NC(=O)[C@H](Cc1c[nH]cn1)NC(=O)[C@@H](N)CCCCN)C(C)C)C(=O)N[C@@H](Cc1ccc(O)cc1)C(=O)O [compound 154] (H-KHVLALKPGSPMY-OH; N-terminus and C-terminus assumed) |  |  |  | <90% | <90% | 
16 | CSCC[C@H](NC(=O)[C@@H]1CCCN1C(=O)[C@H](CCC(N)=O)NC(=O)CNC(=O)[C@H](CCCNC(=N)N)NC(=O)[C@H](CCCCN)NC(=O)[C@H](CC(C)C)NC(=O)[C@H](CCC(N)=O)NC(=O)CNC(=O)[C@H](CC(=O)O)NC(=O)[C@H](Cc1c[nH]cn1)NC(=O)[C@@H]1CCCN1)C(=O)N[C@@H](Cc1ccc(O)cc1)C(=O)O [compound 147] (H-PHDGQLKRGQPMY-OH; N-terminus and C-terminus assumed) |  |  |  | <90% | <90% | 
